Literature values in patent US20190160050A1, “SMALL MOLECULE INHIBITION FOR PREVENTING OR TREATING FIBROTIC DISEASES” (THE REGENTS OF THE UNIVERSITY OF CALIFORNIA, priority 2016, published 2019).
Blank lines part the entries; values can stand above or below the molecule they belong to.

Tests used:
[1] = tested on: Akt/PKB; conditions: read-out: IC50 (Akt/PKB inhibitor)
[2] = tested on: JNK; conditions: read-out: IC50 as competitive inhibitor of JNK
[3] = target: vascular endothelial growth factor receptor 2 (Homo sapiens, UniProt P35968)
Chain of vascular endothelial growth factor receptor 2 (P35968 20-1356, species assumed): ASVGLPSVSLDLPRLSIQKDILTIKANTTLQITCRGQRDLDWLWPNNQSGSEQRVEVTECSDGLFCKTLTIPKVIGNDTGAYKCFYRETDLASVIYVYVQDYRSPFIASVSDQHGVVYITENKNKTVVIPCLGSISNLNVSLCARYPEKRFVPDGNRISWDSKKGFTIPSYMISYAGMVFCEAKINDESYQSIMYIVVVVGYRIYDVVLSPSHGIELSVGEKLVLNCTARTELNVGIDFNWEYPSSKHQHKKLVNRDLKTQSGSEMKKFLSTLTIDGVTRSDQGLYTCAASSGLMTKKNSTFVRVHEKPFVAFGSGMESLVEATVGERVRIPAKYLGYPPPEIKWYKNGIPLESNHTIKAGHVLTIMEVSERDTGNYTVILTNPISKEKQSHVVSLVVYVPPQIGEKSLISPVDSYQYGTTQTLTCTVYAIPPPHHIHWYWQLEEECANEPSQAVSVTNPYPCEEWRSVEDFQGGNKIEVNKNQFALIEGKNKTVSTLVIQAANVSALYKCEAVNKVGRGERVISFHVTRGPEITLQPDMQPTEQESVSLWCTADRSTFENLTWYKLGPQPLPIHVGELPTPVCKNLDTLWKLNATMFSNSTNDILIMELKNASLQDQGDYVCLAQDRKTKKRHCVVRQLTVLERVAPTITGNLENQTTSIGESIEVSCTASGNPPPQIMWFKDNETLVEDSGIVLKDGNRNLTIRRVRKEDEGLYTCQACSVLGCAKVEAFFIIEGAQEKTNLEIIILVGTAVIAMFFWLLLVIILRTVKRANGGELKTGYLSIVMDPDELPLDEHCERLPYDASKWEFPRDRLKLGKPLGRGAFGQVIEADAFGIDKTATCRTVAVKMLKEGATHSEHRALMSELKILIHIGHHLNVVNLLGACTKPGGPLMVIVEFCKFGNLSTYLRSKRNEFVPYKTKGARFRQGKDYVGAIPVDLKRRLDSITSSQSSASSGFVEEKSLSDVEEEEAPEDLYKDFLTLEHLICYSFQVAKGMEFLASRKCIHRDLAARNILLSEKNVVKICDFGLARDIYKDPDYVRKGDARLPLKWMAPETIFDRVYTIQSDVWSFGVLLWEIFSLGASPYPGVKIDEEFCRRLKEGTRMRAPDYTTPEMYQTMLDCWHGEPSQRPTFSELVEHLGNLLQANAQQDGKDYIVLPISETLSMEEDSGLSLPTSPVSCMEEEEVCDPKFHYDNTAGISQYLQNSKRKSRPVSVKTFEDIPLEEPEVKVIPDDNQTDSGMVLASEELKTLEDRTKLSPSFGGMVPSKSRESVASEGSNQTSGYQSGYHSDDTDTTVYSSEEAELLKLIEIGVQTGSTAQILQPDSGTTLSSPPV

[4] = target: Lck (Homo sapiens, UniProt P06239)
Chain of Lck (P06239 whole entry, species assumed): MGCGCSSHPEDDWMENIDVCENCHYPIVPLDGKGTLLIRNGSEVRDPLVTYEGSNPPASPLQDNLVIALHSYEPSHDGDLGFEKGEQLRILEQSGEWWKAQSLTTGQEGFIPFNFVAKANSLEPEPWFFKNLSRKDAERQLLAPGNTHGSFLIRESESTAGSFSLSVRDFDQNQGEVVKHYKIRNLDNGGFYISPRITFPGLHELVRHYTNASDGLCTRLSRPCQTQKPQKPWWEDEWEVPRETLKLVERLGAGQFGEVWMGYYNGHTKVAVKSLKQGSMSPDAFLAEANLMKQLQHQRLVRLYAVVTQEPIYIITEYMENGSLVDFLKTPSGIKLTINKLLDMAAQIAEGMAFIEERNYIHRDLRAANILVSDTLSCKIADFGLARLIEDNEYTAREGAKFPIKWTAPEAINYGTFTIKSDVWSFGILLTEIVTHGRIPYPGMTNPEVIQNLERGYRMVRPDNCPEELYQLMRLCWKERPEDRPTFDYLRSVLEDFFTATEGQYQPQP

[5] = target: Src (Homo sapiens, UniProt P12931)
Chain of Src (P12931 whole entry, species assumed): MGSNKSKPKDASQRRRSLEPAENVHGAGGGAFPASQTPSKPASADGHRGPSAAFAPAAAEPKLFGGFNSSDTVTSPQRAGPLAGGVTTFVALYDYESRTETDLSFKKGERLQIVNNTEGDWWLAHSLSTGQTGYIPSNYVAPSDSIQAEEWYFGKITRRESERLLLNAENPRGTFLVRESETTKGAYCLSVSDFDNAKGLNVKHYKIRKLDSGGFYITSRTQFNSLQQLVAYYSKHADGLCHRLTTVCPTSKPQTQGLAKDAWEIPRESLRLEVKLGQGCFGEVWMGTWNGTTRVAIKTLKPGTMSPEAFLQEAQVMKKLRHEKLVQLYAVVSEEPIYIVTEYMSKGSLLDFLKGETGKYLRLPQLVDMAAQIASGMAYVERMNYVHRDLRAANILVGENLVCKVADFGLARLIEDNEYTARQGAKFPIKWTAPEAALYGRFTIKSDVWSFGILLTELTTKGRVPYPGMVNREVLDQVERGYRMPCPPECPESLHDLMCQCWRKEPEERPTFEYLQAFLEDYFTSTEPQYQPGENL

[6] = target: c-fms (Homo sapiens, UniProt P07333); conditions: read-out: IC50 for c-fms tyrosine kinase
Chain of c-fms (P07333 20-972): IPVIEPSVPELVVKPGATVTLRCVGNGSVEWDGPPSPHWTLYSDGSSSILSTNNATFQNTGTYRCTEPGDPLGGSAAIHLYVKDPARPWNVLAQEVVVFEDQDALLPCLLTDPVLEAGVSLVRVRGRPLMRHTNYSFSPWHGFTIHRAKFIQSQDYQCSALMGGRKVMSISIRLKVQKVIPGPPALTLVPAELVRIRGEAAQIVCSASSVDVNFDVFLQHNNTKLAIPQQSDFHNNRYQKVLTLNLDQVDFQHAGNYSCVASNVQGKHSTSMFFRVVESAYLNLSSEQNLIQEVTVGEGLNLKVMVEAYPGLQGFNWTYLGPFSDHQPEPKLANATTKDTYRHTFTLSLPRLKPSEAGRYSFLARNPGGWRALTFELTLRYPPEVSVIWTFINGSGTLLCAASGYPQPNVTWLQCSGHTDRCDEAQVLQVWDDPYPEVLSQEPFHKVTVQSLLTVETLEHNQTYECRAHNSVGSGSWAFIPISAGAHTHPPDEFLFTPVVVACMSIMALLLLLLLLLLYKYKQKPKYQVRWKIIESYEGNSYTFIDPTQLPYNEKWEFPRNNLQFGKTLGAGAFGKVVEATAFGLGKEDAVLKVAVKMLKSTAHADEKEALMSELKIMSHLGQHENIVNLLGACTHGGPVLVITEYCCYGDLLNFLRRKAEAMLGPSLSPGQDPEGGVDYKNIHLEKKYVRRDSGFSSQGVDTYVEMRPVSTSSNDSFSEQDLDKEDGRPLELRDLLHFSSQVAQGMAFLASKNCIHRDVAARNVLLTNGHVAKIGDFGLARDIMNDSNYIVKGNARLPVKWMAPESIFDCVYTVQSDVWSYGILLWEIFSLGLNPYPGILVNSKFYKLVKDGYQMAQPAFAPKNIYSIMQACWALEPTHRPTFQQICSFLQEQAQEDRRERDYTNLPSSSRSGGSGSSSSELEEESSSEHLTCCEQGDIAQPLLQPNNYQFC

Structure (SMILES): NC(=S)N/N=C/c1coc2ccccc2c1=O.[Cl][Cu][Cl] [FPA 124]
IC50 [1]: 100 nM

IC50 [2]: 280 nM
Structure (SMILES): O=c1[nH]nc(Sc2ncc([N+](=O)[O-])s2)n1-c1ccc2c(c1)OCCO2 [BI 78D3, 4-(2,3-dihydro-1,4-benzodioxin-6-yl)-2,4-dihydro-5-[(5-nitro-2-thiazolyl)thio]-3H-1,2,4-triazol-3-one]

IC50 [3]: 320 nM
IC50 [4]: 88 nM
IC50 [5]: 44 nM
IC50 [6]: 30 µM
Structure (SMILES): COc1cc2ncnc(Nc3ccc(Oc4ccccc4)cc3)c2cc1OC [Src Inhibitor-1, 4-(4′-Phenoxyanilino)-6,7-dimethoxyquinazoline, 6,7-Dimethoxy-N-(4-phenoxyphenyl)-4-quinazolinamine]
